Measurements as given in US10653144B2, “Pesticidal and parasiticidal vinyl isoxazoline compounds” (BOEHRINGER INGELHEIM ANIMAL HEALTH USA INC., priority 2016, dated 2020).

What follows are molecules tested on A. aegypti L1 larvae (assay: A. aegypti L1 larvae motility dose response assay). Details: Aedes aegypti, 48 h, diluted LB media, 25° C., motility vs DMSO control wells.
Method: Efficacy of Compounds Against A. aegypti Mosquitos Compounds were formulated in 100% DMSO are added to microtiter plates containing 180 μl of diluted LB media (Luria-Bertani media is a combination of tryptone, salt and yeast extract). Ten A. aegypti L1 larvae are added and the plates are incubated at 25° C. for 48 h. The efficacy of a compound is determined based on the motility of the larvae as compared to average motility of control wells containing DMSO only. A dose response assay was conducted to determine an EC50 value.
Work on `O=C(NCCC(F)(F)F)c1ccc(/C=C/C2=NOC(c3cc(Cl)cc(C(F)(F)F)c3)(C(F)(F)F)C2)n2cncc12` (stereo not shown) [Compound 6, 5-[2-[5-[3-chloro-5-(trifluoromethyl)phenyl]-5-(trifluoromethyl)-4,5-dihydro-1,2-oxazol-3-yl]ethenyl]-N-(3,3,3-trifluoropropyl)imidazo[1,5-a]pyridine-8-carboxamide] yielded an EC50 of no more than 20 µM. In the case of `O=C(CNC(=O)c1ccc(/C=C/C2=NOC(c3cc(Cl)cc(C(F)(F)F)c3)(C(F)(F)F)C2)n2cncc12)NCC(F)(F)F` (stereo not shown) [Compound 5, 2-([5-[2-[5-[3-chloro-5-(trifluoromethyl)phenyl]-5-(trifluoromethyl)-4,5-dihydro-1,2-oxazol-3-yl]ethenyl]imidazo[1,5-a]pyridin-8-yl]formamido)-N-(2,2,2-trifluoroethyl)acetamide], the EC50 is reported as no more than 20 µM. `O=C(NCCC(F)(F)F)c1ccc(/C=C/C2=NOC(c3cc(Cl)cc(C(F)(F)F)c3)(C(F)(F)F)C2)c2ccccc12` (stereo not shown) [Compound 2, 4-[2-[5-[3-chloro-5-(trifluoromethyl)phenyl]-5-(trifluoromethyl)-4,5-dihydro-1,2-oxazol-3-yl]ethenyl]-N-(3,3,3-trifluoropropyl)naphthalene-1-carboxamide] showed an EC50 of no more than 20 µM. Work on `O=C(CNC(=O)c1ccc(/C=C/C2=NOC(c3cc(Cl)cc(C(F)(F)F)c3)(C(F)(F)F)C2)c2ccccc12)NCC(F)(F)F` (stereo not shown) [Compound 1, 2-([4-[2-[5-[3-chloro-5-(trifluoromethyl)phenyl]-5-(trifluoromethyl)-4,5-dihydro-1,2-oxazol-3-yl]ethenyl]naphthalen-1-yl]formamido)-N-(2,2,2-trifluoroethyl)acetamide] yielded an EC50 of no more than 20 µM.
